Consider 4 compounds from US8088819B2, “Derivatives of substituted 3-phenyl-1-(phenylthienyl)propan-1-ones and of 3-phenyl-1-(phenylfuranyl) propan-1-ones, preparation and use” (priority 2006, dated 2012).

Experiment [1] deals with target genes of PPARδ in murine myocytes (C2C12). Briefly: Expression of target genes of PPARδ (PDK4, CPT1b, UCP2, UCP3) in murine myocytes, quantitative RT-PCR. It counts as cell-based. The note with it: murine myocytes in vitro. The source says:
It is established that regulation of the expression of these genes is directly controlled by PPARδ in this cell type. The more the expression of the genes is increased, the greater the stimulating action of the compound according to the invention on metabolism in the muscle cells.
Cells from the murine cell line C2C12 (obtained from ECACC) are cultivated in DMEM medium (Gibco; 41965-039) with addition of 1% L-glutamine (Gibco; 25030), 1% of penicillin/streptomycin (VWR; BWSTL0022/100) and 10% decomplemented fetal calf serum (FCS. Gibco; 10270-106).
The cells are seeded on 24-well plates at a density of 50·10^3 cells/well. At confluence, the medium is replaced with a differentiating medium (basal medium with addition of 2% of horse serum (Gibco; 26050-088)), then incubated at 37° C. and 5% CO2 for 4 days in order to differentiate them to myocytes.
After 5 days of differentiation, the cells are put in a deprivation medium (basal medium without serum) for 6 hours. The cells are then treated with the compounds according to the invention in the deprivation medium. Compounds 2, 4, 7, 11, 39, 40, 46, 49 and 72 were in dose effect, corresponding to 1×, 10× and 100× their EC50 PPARδ. The compounds according to the invention were dissolved in dimethylsulfoxide (DMSO, Sigma; D5879). The cells were treated for 24 h at 37° C., 5% CO2. The effect of the compounds according to the invention was compared with the effect of DMSO alone.
After treatment, the total RNA is extracted from the cells using the NucleoSpine® 96 RNA kit (Macherey Nagel, Hoerdt, France) following the manufacturer's instructions.
1 μg of total RNA (quantified based on the UV spectrophotometer reading) was then reverse-transcribed to complementary DNA by reaction for 1 hour at 37° C. in a total volume of 30 μl containing buffer 1× (Invitrogen), 1.5 mM of DTT, 0.18 mM of dNTPs (Promega), 200 ng of pdN6 (Amersham), 30 U of RNase inhibitor (Promega) and 1 μl of MMLV-RT (Invitrogen).
The quantitative PCR experiments were carried out using the MyiQ Single-Color Real-Time PCR Detection System (Biorad, Marnes-la-Coquette, France) and were performed using the iQ SYBR Green Supermix kit following the supplier's recommendations, in 96-well plates, on 5 μl of diluted reverse-transcription reaction mixtures with a hybridization temperature of 60° C. Primer pairs specific to the PDK4, CPT1b, UCP2 and UCP3 genes under investigation were used:
The amount of fluorescence emitted is directly proportional to the amount of complementary DNA present at the start of the reaction and amplified during PCR. For each target investigated, a range is produced by successive dilutions of a pool constituted of a few microliters of various reverse-transcription reaction mixtures. The relative expression levels of each target are thus determined using the efficacy curves obtained with the points in the range.
The levels of expression of the genes of interest were then normalized relative to the level of expression of the reference gene 36B4 (whose specific primers are: sense primer: 5′-[…]-3′ (SEQ ID No. 19) and antisense primer: 5′-[…]-3′ (SEQ ID No. 20)). The induction factor, i.e. the ratio of the relative signal (induced by the compound according to the invention) to the mean of the relative values of the control group, was then calculated. The higher this factor, the greater the activating character of the compounds according to the invention with respect to gene expression. The final result is represented as the mean of the induction values in each experimental group.

Experiment [2] deals with ABCA1 gene in human macrophages (THP-1). Briefly: Reverse cholesterol transport: expression of the ABCA1 gene in human macrophages. It is filed as cell-based. The note with it: 24 h. The protocol: The effect of the compounds according to the invention on reverse cholesterol transport was evaluated by measuring the expression of the ABCA1 gene (ATP-binding cassette, sub-family A, member 1; membrane transporter involved in the efflux of cholesterol) in human macrophages. The more the expression of ABCA1 is increased, the greater the stimulating action of the compound according to the invention on reverse cholesterol transport.
The THP1 human monocyte line (obtained from ATCC) is cultivated in RPMI1640 medium with addition of 25 mM Hepes (Gibco; 42401-018), 1% glutamine (Gibco; 25030-24), 1% penicillin/streptomycin (Biochrom AG; A 2213) and 10% decomplemented fetal calf serum (FCS. Gibco; 26050-088).
The cells are seeded on 24-well plates (Primaria BD Falcon) at a density of 3·10^5 cells/well and incubated at 37° C. and 5% CO2 for 72 h in the presence of 30 ng/ml of phorbol 12-myristate 13-acetate (PMA) in order to differentiate them to macrophages. […]
1 μg of total RNA (quantified based on the spectrophotometer reading) was then reverse-transcribed to complementary DNA by reaction for 1 hour at 37° C. in a total volume of 30 μl containing buffer 1× (Invitrogen), 1.5 mM of DTT, 0.18 mM of dNTPs (Promega), 200 ng of pdN6 (Amersham), 30 U of RNase inhibitor (Promega) and 1 μl of MMLV-RT (Invitrogen).
The quantitative PCR experiments were carried out using the MyiQ Single-Color Real-Time PCR Detection System (Biorad, Marnes-la-Coquette, France) and were performed using the iQ SYBR Green Supermix kit following the supplier's recommendations, in 96-well plates, on 5 μl of diluted reverse transcription reaction mixtures with a hybridization temperature of 60° C. […]
The amount of fluorescence emitted is directly proportional to the amount of complementary DNA present at the start of the reaction and amplified during PCR. […] The relative expression levels of each target are thus determined using the efficacy curves obtained with the points in the range. […]

On to `CC(C)(Oc1ccc(CCC(=O)c2ccc(-c3ccc(C(F)(F)F)cc3)s2)c(Cl)c1Cl)C(=O)O` [Compound 2, 2-(2,3-dichloro-4-(3-oxo-3-(5-(4-(trifluoromethyl)phenyl)thien-2-yl)propyl)phenoxy)-2-methylpropanoic acid], for which the “expression of genes involved in carbohydrate and lipid metabolism and in thermoregulation” value (“expression of genes involved” below) in experiment [1] is “stimulating effects”. For the same compound, the “expression of the gene coding for ABCA1 in human macrophages” value (“expression of the gene coding for ABCA1” below) in experiment [2] (at 1 μm) was “significant increase”.

Take `CC(C)(Oc1ccc(CCC(O)c2ccc(-c3ccc(C(F)(F)F)cc3)s2)c(Cl)c1Cl)C(=O)O` (stereo not shown) [Compound 4, 2-(2,3-dichloro-4-(3-hydroxy-3-(5-(4-(trifluoromethyl)phenyl)thien-2-yl)propyl)phenoxy)-2-methylpropanoic acid]: the “expression of genes involved” value in experiment [1] is “stimulating effects”. Also, the “expression of the gene coding for ABCA1” value in experiment [2] (at 1 μm) is given as “significant increase”.

As to `CC(C)(Oc1ccc(CCC(OCc2ccccc2)c2ccc(-c3ccc(C(F)(F)F)cc3)s2)c(Cl)c1Cl)C(=O)O` (stereo not shown) [Compound 7, 2-(4-(3-(benzyloxy)-3-(5-(4-(trifluoromethyl)phenyl)thien-2-yl)propyl)-2,3-dichlorophenoxy)-2-methylpropanoic acid], in experiment [1], the “expression of genes involved” value was “stimulating effects”. The “expression of the gene coding for ABCA1” value in experiment [2] (at 300 nM) was “significant increase”.

In the case of `CC(C)(Oc1ccc(CCC(=O)c2cc(-c3ccc(C(F)(F)F)cc3)cs2)c(Cl)c1Cl)C(=O)O` [Compound 11, 2-(2,3-dichloro-4-(3-oxo-3-(4-(4-(trifluoromethyl)phenyl)thien-2-yl)propyl)phenoxy)-2-methylpropanoic acid], in experiment [1], the “expression of genes involved” value is “stimulating effects”.
